Results as given in ChEMBL document CHEMBL1201862, “PubChem BioAssay data set” (2004).
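Results reflect a 48-hour exposure of cells in 96-well plates to compound at five concentrations. Here, GI50 denotes the concentration required for 50% inhibition of growth.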 The source made the active and inactive calls. No stated cut-off is given here; in the data, active = GI50 up to about 1.1 µM and inactive = higher.

Tests used:
Assay in all cases: NCI-60 cell line screen, 48 h
A498 = test system: A498
A549 = test system: A549
ACHN = test system: ACHN
CAKI-1 = test system: CAKI-1
CCRF-CEM = test system: CCRF-CEM
COLO 205 = test system: COLO 205
DLD-1 = test system: DLD-1
DMS-114 = test system: DMS-114
DMS-273 = test system: DMS-273
EKVX = test system: EKVX
HCC 2998 = test system: HCC 2998
HCT-116 = test system: HCT-116
HCT-15 = test system: HCT-15
HL-60 = test system: HL-60
HOP-18 = test system: HOP-18
HOP-62 = test system: HOP-62
HOP-92 = test system: HOP-92
HT-29 = test system: HT-29
IGROV-1 = test system: IGROV-1
K562 = test system: K562
KM-20L2 = test system: KM-20L2
KM12 = test system: KM12
LOX IMVI = test system: LOX IMVI
LXFL 529 = test system: LXFL 529
M14 = test system: M14
M19-MEL = test system: M19-MEL
MOLT-4 = test system: MOLT-4
Malme-3M = test system: Malme-3M
NCI-H226 = test system: NCI-H226
NCI-H23 = test system: NCI-H23
NCI-H460 = test system: NCI-H460
NCI-H522 = test system: NCI-H522
OVCAR-3 = test system: OVCAR-3
OVCAR-4 = test system: OVCAR-4
OVCAR-5 = test system: OVCAR-5
OVCAR-8 = test system: OVCAR-8
RPMI-8226 = test system: RPMI-8226
RXF 393 = test system: RXF 393
SF-268 = test system: SF-268
SF-295 = test system: SF-295
SF-539 = test system: SF-539
SK-MEL-28 = test system: SK-MEL-28
SK-MEL-2 = test system: SK-MEL-2
SK-MEL-5 = test system: SK-MEL-5
SK-OV-3 = test system: SK-OV-3
SN12C = test system: SN12C
SNB-19 = test system: SNB-19
SNB-75 = test system: SNB-75
SNB-78 = test system: SNB-78
SR = test system: SR
SW-620 = test system: SW-620
TK-10 = test system: TK-10
U-251 = test system: U-251
UACC-257 = test system: UACC-257
UACC-62 = test system: UACC-62
UO-31 = test system: UO-31
XF498 = test system: XF498
786-0 = test system: 786-0

In the case of COC(=O)C(=O)C(C(=O)Nc1cccc(C)c1C)C1Sc2ccccc2NC1=O (stereo unspecified), the GI50 (A498) is reported as 11.5 µM (inactive), the GI50 (A549) is reported as 10.9 µM (inactive) and the GI50 (ACHN) is reported as > 25 µM (inactive). The GI50 (CAKI-1) was > 25 µM (inactive), the GI50 (CCRF-CEM) was > 25 µM (inactive) and the GI50 (COLO 205) was 8.97 µM (inactive). For the same compound, the GI50 (DLD-1) was 11.2 µM (inactive), the GI50 (DMS-114) was 5.83 µM (inactive) and the GI50 (DMS-273) was 11.8 µM (inactive). The GI50 (EKVX) was > 25 µM (inactive), the GI50 (HCC 2998) was 15.6 µM (inactive) and the GI50 (HCT-116) was 8.22 µM (inactive). The GI50 (HCT-15) was 11.4 µM, the GI50 (HL-60) was 4.89 µM (inactive) and the GI50 (HOP-18) was > 25 µM (inactive). The GI50 (HOP-62) was 19.6 µM (inactive), the GI50 (HOP-92) was 10.4 µM (inactive) and the GI50 (HT-29) was 7.8 µM (inactive). For the same compound, the GI50 (IGROV-1) was 16.8 µM (inactive), the GI50 (K562) was 9.79 µM (inactive) and the GI50 (KM-20L2) was 8.67 µM (inactive). The GI50 (KM12) was 7.69 µM (inactive), the GI50 (LOX IMVI) was 13.9 µM (inactive) and the GI50 (LXFL 529) was > 25 µM (inactive). The GI50 (M14) was 8.55 µM (inactive), the GI50 (M19-MEL) was 14.6 µM (inactive) and the GI50 (MOLT-4) was > 25 µM (inactive). The GI50 (Malme-3M) was 6.37 µM (inactive), the GI50 (NCI-H226) was 16.7 µM (inactive) and the GI50 (NCI-H23) was > 25 µM (inactive). The GI50 (NCI-H460) was 13.4 µM (inactive), the GI50 (NCI-H522) was 15.8 µM (inactive) and the GI50 (OVCAR-3) was 20 µM (inactive). For the same compound, the GI50 (OVCAR-4) was > 25 µM (inactive), the GI50 (OVCAR-5) was > 25 µM (inactive) and the GI50 (OVCAR-8) was 19.5 µM (inactive). The GI50 (RPMI-8226) was 9.48 µM (inactive), the GI50 (RXF 393) was 7.55 µM (inactive) and the GI50 (SF-268) was 17.6 µM (inactive). The GI50 (SF-295) was 12.1 µM (inactive), the GI50 (SF-539) was 12 µM (inactive) and the GI50 (SK-MEL-28) was 14.6 µM (inactive). For the same compound, the GI50 (SK-MEL-2) was 5.75 µM (inactive), the GI50 (SK-MEL-5) was 8.11 µM (inactive) and the GI50 (SK-OV-3) was > 25 µM (inactive). For the same compound, the GI50 (SN12C) was > 25 µM (inactive), the GI50 (SNB-19) was 21.9 µM (inactive) and the GI50 (SNB-75) was 9.84 µM (inactive). For the same compound, the GI50 (SNB-78) was 21.2 µM (inactive), the GI50 (SR) was 13.7 µM (inactive) and the GI50 (SW-620) was 8.55 µM (inactive). For the same compound, the GI50 (TK-10) was > 25 µM (inactive), the GI50 (U-251) was 12.3 µM (inactive) and the GI50 (UACC-257) was 16.4 µM (inactive). The GI50 (UACC-62) was 8.09 µM (inactive), the GI50 (UO-31) was > 25 µM (inactive) and the GI50 (XF498) was > 25 µM (inactive).

N#CC12Cc3ccc4c(c3-c3cccc(c31)CCN2C(=O)c1ccccc1)OCO4 (stereo unspecified) was tested, and the GI50 (786-0) was 71.6 µM (inactive), the GI50 (A498) was 68.4 µM (inactive) and the GI50 (A549) was > 100 µM (inactive). For the same compound, the GI50 (ACHN) was 71.8 µM (inactive), the GI50 (CCRF-CEM) was > 100 µM (inactive) and the GI50 (COLO 205) was > 100 µM (inactive). The GI50 (DLD-1) was > 100 µM (inactive), the GI50 (DMS-114) was > 100 µM (inactive) and the GI50 (DMS-273) was > 100 µM (inactive). The GI50 (EKVX) was > 100 µM (inactive), the GI50 (HCC 2998) was > 100 µM (inactive) and the GI50 (HCT-116) was > 100 µM (inactive). For the same compound, the GI50 (HCT-15) was over 100 µM, the GI50 (HL-60) was > 100 µM (inactive) and the GI50 (HOP-18) was > 100 µM (inactive). For the same compound, the GI50 (HOP-62) was > 100 µM (inactive), the GI50 (HOP-92) was 36.2 µM (inactive) and the GI50 (HT-29) was > 100 µM (inactive). For the same compound, the GI50 (IGROV-1) was > 100 µM (inactive), the GI50 (K562) was > 100 µM (inactive) and the GI50 (KM-20L2) was > 100 µM (inactive). The GI50 (KM12) was > 100 µM (inactive), the GI50 (LOX IMVI) was > 100 µM (inactive) and the GI50 (LXFL 529) was > 100 µM (inactive). The GI50 (M14) was > 100 µM (inactive), the GI50 (M19-MEL) was > 100 µM (inactive) and the GI50 (MOLT-4) was > 100 µM (inactive). The GI50 (Malme-3M) was 64 µM (inactive), the GI50 (NCI-H226) was > 100 µM (inactive) and the GI50 (NCI-H23) was > 100 µM (inactive). For the same compound, the GI50 (NCI-H522) was > 10 µM (inactive), the GI50 (OVCAR-3) was > 100 µM (inactive) and the GI50 (OVCAR-5) was > 100 µM (inactive). For the same compound, the GI50 (OVCAR-8) was > 100 µM (inactive), the GI50 (RPMI-8226) was > 100 µM (inactive) and the GI50 (RXF 393) was > 100 µM (inactive). The GI50 (SF-268) was > 100 µM (inactive), the GI50 (SF-295) was > 100 µM (inactive) and the GI50 (SF-539) was > 100 µM (inactive). The GI50 (SK-MEL-28) was > 100 µM (inactive), the GI50 (SK-MEL-5) was > 100 µM (inactive) and the GI50 (SK-OV-3) was > 100 µM (inactive). The GI50 (SN12C) was > 100 µM (inactive), the GI50 (SNB-19) was > 100 µM (inactive) and the GI50 (SNB-75) was 34.7 µM (inactive). The GI50 (SNB-78) was > 100 µM (inactive), the GI50 (SR) was > 100 µM (inactive) and the GI50 (SW-620) was > 100 µM (inactive). For the same compound, the GI50 (TK-10) was > 100 µM (inactive), the GI50 (U-251) was > 100 µM (inactive) and the GI50 (UACC-257) was > 100 µM (inactive). For the same compound, the GI50 (UACC-62) was > 100 µM (inactive), the GI50 (UO-31) was > 100 µM (inactive) and the GI50 (XF498) was 45 µM (inactive).
